How the values were obtained:
[1] = system: human airway epithelial cells (HAECs); experiment: High-throughput sequencing (HTS) of miRNAs at four stages of differentiation of HAECs; conditions: for Modulation (ratio of the level of intensity of expression in log2 in two stages of differentiation) measured by high-throughput sequencing, D7 − D0 / Modulation (ratio of the level of intensity of expression in log2 in two stages of differentiation) measured by high-throughput sequencing, FC − D7 / Modulation (ratio of the level of intensity of expression in log2 in two stages of differentiation) measured by high-throughput sequencing, WD − D0 / Modulation (ratio of the level of intensity of expression in log2 in two stages of differentiation) measured by high-throughput sequencing, WD − FC / Level of intensity of expression in log2 measured by high-throughput sequencing, D0 / Level of intensity of expression in log2 measured by high-throughput sequencing, D7 / Level of intensity of expression in log2 measured by high-throughput sequencing, FC / Level of intensity of expression in log2 measured by high-throughput sequencing, WD: Table VI; for Level of intensity of expression in log2 At the differentiated stage (WD) measured in HTS: healthy human airway epithelial tissue; for Level of intensity of expression in log2 measured by high-throughput sequencing, D0: stage D0; for Level of intensity of expression in log2 measured by high-throughput sequencing, D7: stage D7; for Level of intensity of expression in log2 measured by high-throughput sequencing, FC: stage FC; for Level of intensity of expression in log2 At the differentiated stage (WD) measured in HTS / Level of intensity of expression in log2 measured by high-throughput sequencing, WD: stage WD; for Abundance (%), D0: ALI-D0; for Abundance (%), D7: ALI-D7; for Abundance (%), FC: ALI-FC; for Abundance (%), WD: ALI-WD
Outline: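 Total RNA (with small RNAs) from air-liquid-interface HAECs at ALI-D0, D7, first cilia (~14 d) and fully differentiated (~21 d); adaptor-ligated SOLiD small-RNA libraries, RT-PCR, gel-selected ~105-150 bases. Counts normalized to 10^6 sequences as % abundance; linear-model/empirical Bayes; kept >1% abundance, |Log2 Ratio| <0.5, adjusted P <0.05.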

[2] = system: human airway epithelial cells (HAECs); experiment: Agilent miRNA chips, miRNA expression at four stages of differentiation of HAECs; conditions: for Modulation (ratio of the level of intensity of expression in log2 in two stages of differentiation) measured with the Agilent chips, D7 − D0 / Modulation (ratio of the level of intensity of expression in log2 in two stages of differentiation) measured with the Agilent chips, FC − D7 / Modulation (ratio of the level of intensity of expression in log2 in two stages of differentiation) measured with the Agilent chips, WD − D0 / Modulation (ratio of the level of intensity of expression in log2 in two stages of differentiation) measured with the Agilent chips, WD − FC / Level of intensity of expression in log2 measured with the Agilent chips, D0 / Level of intensity of expression in log2 measured with the Agilent chips, D7 / Level of intensity of expression in log2 measured with the Agilent chips, FC / Level of intensity of expression in log2 measured with the Agilent chips, WD: Table VI; for Modulation (ratio of the level of intensity of expression in log2 at two stages of differentiation), FC − D7 / Modulation (ratio of the level of intensity of expression in log2 at two stages of differentiation), WD − FC: Agilent miRNA chips, Table V; for Level of intensity of expression in log2 measured with the Agilent chips, D0: stage D0; for Level of intensity of expression in log2 measured with the Agilent chips, D7: stage D7; for Level of intensity of expression in log2 measured with the Agilent chips, FC: stage FC; for Level of intensity of expression in log2 measured with the Agilent chips, WD: stage WD
Outline: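 Expression read from hybridization signals on Human miRNA Microarray v2 arrays spanning all miRBase v.12.0 human miRNAs plus 89 viral ones. Samples are RNA from the same patients profiled by sequencing, labelled with the standard kit.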

[3] = system: basal cells and pyramidal cells of the airway epithelium; experiment: miRNA expression in sorted basal cells versus pyramidal cells (ciliated + secretory), HTS and Agilent chips; set-up: species or system human; conditions: for Modulation of expression of the miRNAs in pyramidal cells (323(−)) relative to basal cells 323(+): HTS and Agilent chips; for Intensity of the level of expression in log2 in pyramidal cells (323(−)): pyramidal cells (ciliated + secretory)
Outline: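 Nasal polyp or concha epithelial cells from 3 donors FACS-sorted into CD151+/tissue factor+ basal cells and CD151−/TF− pyramidal (ciliated plus mucus-secreting) cells, excluding dead (DAPI) cells and doublets. miRNA profiles from total RNA obtained by Agilent chips or high-throughput sequencing.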

Row | Substance | Modulation (ratio of the level of intensity of expression in log2 in two stages of differentiation) measured by high-throughput sequencing, D7 − D0 [1] [log2] | Modulation (ratio of the level of intensity of expression in log2 in two stages of differentiation) measured by high-throughput sequencing, FC − D7 [1] [log2] | Modulation (ratio of the level of intensity of expression in log2 in two stages of differentiation) measured by high-throughput sequencing, WD − D0 [1] [log2] | Modulation (ratio of the level of intensity of expression in log2 in two stages of differentiation) measured by high-throughput sequencing, WD − FC [1] [log2] | Level of intensity of expression in log2 At the differentiated stage (WD) measured in HTS [1] [log2] | Level of intensity of expression in log2 measured by high-throughput sequencing, D0 [1] [log2] | Level of intensity of expression in log2 measured by high-throughput sequencing, D7 [1] [log2] | Level of intensity of expression in log2 measured by high-throughput sequencing, FC [1] [log2] | Level of intensity of expression in log2 measured by high-throughput sequencing, WD [1] [log2] | Modulation (ratio of the level of intensity of expression in log2 in two stages of differentiation) measured with the Agilent chips, D7 − D0 [2] [log2] | Modulation (ratio of the level of intensity of expression in log2 in two stages of differentiation) measured with the Agilent chips, FC − D7 [2] [log2] | Modulation (ratio of the level of intensity of expression in log2 in two stages of differentiation) measured with the Agilent chips, WD − D0 [2] [log2] | Modulation (ratio of the level of intensity of expression in log2 in two stages of differentiation) measured with the Agilent chips, WD − FC [2] [log2] | Level of intensity of expression in log2 measured with the Agilent chips, D0 [2] [log2] | Level of intensity of expression in log2 measured with the Agilent chips, D7 [2] [log2] | Level of intensity of expression in log2 measured with the Agilent chips, FC [2] [log2] | Level of intensity of expression in log2 measured with the Agilent chips, WD [2] [log2] | Modulation of expression of the miRNAs in pyramidal cells (323(−)) relative to basal cells 323(+) [3] | Intensity of the level of expression in log2 in basal cells (323(+)) [3] [log2] | Intensity of the level of expression in log2 in pyramidal cells (323(−)) [3] [log2] | further results
1 | hsa-miR-200a: human miRNA, SEQ ID No. 16 (UAACACUGUCUGGUAACGAUGU; expressed or natural sequence; listed as Homo sapiens) | 1.00 | 0.67 | 2.20 | 0.54 | 10.96 | 9.02 | 10.01 | 10.68 | 11.22 | 1.94 | 0.20 | 2.20 | 0.06 | 8.64 | 10.58 | 10.79 | 10.84 | −0.95 | 8.80 | 7.85 | Modulation (ratio of the level of intensity of expression in log2 at two stages of differentiation), FC − D7 [2]: 0.20 log2; Modulation (ratio of the level of intensity of expression in log2 at two stages of differentiation), WD − FC [2]: 0.06 log2
2 | hsa-miR-200b: human miRNA, SEQ ID No. 17 (UAAUACUGCCUGGUAAUGAUGA; expressed or natural sequence; listed as Homo sapiens) | 0.76 | 0.56 | 2.36 | 1.03 | 10.64 | 8.60 | 9.37 | 9.93 | 10.96 | 2.01 | −0.07 | 2.11 | 0.17 | 9.93 | 11.94 | 11.87 | 12.04 | −0.15 | 9.99 | 9.84 | Modulation (ratio of the level of intensity of expression in log2 at two stages of differentiation), FC − D7 [2]: −0.07 log2; Modulation (ratio of the level of intensity of expression in log2 at two stages of differentiation), WD − FC [2]: 0.17 log2
3 | hsa-miR-203: human miRNA, SEQ ID No. 19 (GUGAAAUGUUUAGGACCACUAG; expressed or natural sequence; listed as Homo sapiens) | 0.11 | −0.21 | 1.08 | 1.18 | 14.55 | 13.50 | 13.60 | 13.39 | 14.57 | 0.97 | −0.67 | 0.44 | 0.13 | 10.64 | 11.61 | 10.95 | 11.08 | −3.50 | 3.64 | 0.14 | Modulation (ratio of the level of intensity of expression in log2 in two stages of differentiation), D7 − D0 ([1]; HTS): 0.11 log2; Modulation (ratio of the level of intensity of expression in log2 in two stages of differentiation), FC − D7 ([1]; HTS): −0.21 log2; Modulation (ratio of the level of intensity of expression in log2 in two stages of differentiation), WD − FC ([1]; HTS): 1.18 log2; Abundance (%), D0 ([1]; HTS): 2.53%; Level of intensity of expression in log2, D0 ([1]; HTS, ALI-D0 (proliferation)): 13.49 log2; Abundance (%), D7 ([1]; HTS): 2.73%; Abundance (%), FC ([1]; HTS): 2.29%; Abundance (%), WD ([1]; HTS): 3.92%
4 | hsa-miR-205: human miRNA, SEQ ID No. 20 (UCCUUCAUUCCACCGGAGUCUG; expressed or natural sequence; listed as Homo sapiens) | 0.62 | −1.12 | −0.06 | 0.44 | 15.24 | 14.61 | 15.23 | 14.11 | 14.55 | 1.00 | −0.72 | −0.11 | −0.39 | 13.18 | 14.18 | 13.46 | 13.07 | −7.00 | 12.44 | 5.44 | Modulation (ratio of the level of intensity of expression in log2 in two stages of differentiation), D7 − D0 ([1]; HTS): 0.62 log2; Modulation (ratio of the level of intensity of expression in log2 in two stages of differentiation), FC − D7 ([1]; HTS): −1.12 log2; Modulation (ratio of the level of intensity of expression in log2 in two stages of differentiation), WD − FC ([1]; HTS): 0.44 log2; Abundance (%), D0 ([1]; HTS): 5.48%; Abundance (%), D7 ([1]; HTS): 8.43%; Abundance (%), FC ([1]; HTS): 3.76%; Abundance (%), WD ([1]; HTS): 3.87%; cell type in which the miRNA is specifically expressed ([3]; sorted ciliated/pyramidal versus basal cells): more specific to the basal cells
